Laboratory results published in patent US7282513B2, “Heteroaryl substituted spirocyclic sulfamides for inhibition of gamma secretase” (Merck Sharp & Dohme Limited, priority 2002, dated 2007).

Structure (SMILES): Cn1nc(-c2ccc(F)cc2)cc1-c1ccc2c(c1)C[C@H]1CC[C@@H](C2)[C@]12CN(CC(F)(F)F)S(=O)(=O)N2 (single isomer, unassigned) [Example 15]
- melting point: 185 °C
